Results reported in ChEMBL document CHEMBL1201862, “PubChem BioAssay data set” (2004).
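Each compound was tested at five concentrations against cells in 96-well plates for 48 hours. GI50: concentration for 50% inhibition of growth.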 Activity calls are given as the source filed them. Rule as the data show it: active = GI50 up to about 1.1 µM and inactive = higher.

How the values were obtained:
Assay in all cases: growth of human tumour cells (NCI), 48 h
786-0 = system: 786-0
NCI-H522 = system: NCI-H522
MCF7 = system: MCF7
PC-3 = system: PC-3
NCI-H226 = system: NCI-H226
UO-31 = system: UO-31
U-251 = system: U-251
EKVX = system: EKVX
A549 = system: A549
MDA-MB-435 = system: MDA-MB-435
SF-268 = system: SF-268
UACC-62 = system: UACC-62
SW-620 = system: SW-620
Hs-578T = system: Hs-578T
MDA-N = system: MDA-N
LOX IMVI = system: LOX IMVI
OVCAR-5 = system: OVCAR-5
COLO 205 = system: COLO 205
SF-295 = system: SF-295
HT-29 = system: HT-29
A498 = system: A498
OVCAR-8 = system: OVCAR-8
SK-MEL-5 = system: SK-MEL-5
HCT-15 = system: HCT-15
ACHN = system: ACHN
CCRF-CEM = system: CCRF-CEM
SN12C = system: SN12C
K562 = system: K562
TK-10 = system: TK-10
MOLT-4 = system: MOLT-4
HCT-116 = system: HCT-116
KM12 = system: KM12
RPMI-8226 = system: RPMI-8226
M14 = system: M14
SK-MEL-28 = system: SK-MEL-28
IGROV-1 = system: IGROV-1
NCI-H23 = system: NCI-H23
DU-145 = system: DU-145
SNB-75 = system: SNB-75
SR = system: SR
SK-OV-3 = system: SK-OV-3
SK-MEL-2 = system: SK-MEL-2
OVCAR-3 = system: OVCAR-3
HOP-62 = system: HOP-62
Malme-3M = system: Malme-3M
NCI/ADR-RES = system: NCI/ADR-RES
MDA-MB-231 = system: MDA-MB-231
OVCAR-4 = system: OVCAR-4
SF-539 = system: SF-539
SNB-19 = system: SNB-19
HCC 2998 = system: HCC 2998
T47D = system: T47D
RXF 393 = system: RXF 393
CAKI-1 = system: CAKI-1
NCI-H460 = system: NCI-H460
UACC-257 = system: UACC-257
HOP-92 = system: HOP-92
HL-60 = system: HL-60

SMILES: CSC1=N/C(=C\c2ccc(Cl)cc2)C(=O)N1CN1CCCCC1
- GI50 (786-0): 42.8 µM (inactive)
- GI50 (NCI-H522): 27.4 µM (inactive)
- GI50 (MCF7): 5.33 µM (inactive)
- GI50 (PC-3): 35.3 µM (inactive)
- GI50 (NCI-H226): > 100 µM (inactive)
- GI50 (UO-31): 23.6 µM (inactive)
- GI50 (U-251): 47.8 µM (inactive)
- GI50 (EKVX): 16.6 µM (inactive)
- GI50 (A549): 42.4 µM (inactive)
- GI50 (MDA-MB-435): 35.9 µM (inactive)
- GI50 (SF-268): 27.4 µM (inactive)
- GI50 (UACC-62): 65.8 µM (inactive)
- GI50 (SW-620): 34.9 µM (inactive)
- GI50 (Hs-578T): 20.7 µM (inactive)
- GI50 (MDA-N): 56.8 µM (inactive)
- GI50 (LOX IMVI): 44.7 µM (inactive)
- GI50 (OVCAR-5): 99.1 µM (inactive)
- GI50 (COLO 205): 60.1 µM (inactive)
- GI50 (SF-295): 35.5 µM (inactive)
- GI50 (HT-29): 35.6 µM (inactive)
- GI50 (A498): 17.7 µM (inactive)
- GI50 (OVCAR-8): 37.1 µM (inactive)
- GI50 (SK-MEL-5): 32.4 µM (inactive)
- GI50 (HCT-15): 25.9 µM
- GI50 (ACHN): 25.4 µM (inactive)
- GI50 (CCRF-CEM): 26.5 µM (inactive)
- GI50 (SN12C): 67.5 µM (inactive)
- GI50 (K562): 53.7 µM (inactive)
- GI50 (TK-10): 31.6 µM (inactive)
- GI50 (MOLT-4): 62.7 µM (inactive)
- GI50 (HCT-116): 37.7 µM (inactive)
- GI50 (KM12): 49.5 µM (inactive)
- GI50 (RPMI-8226): 37.4 µM (inactive)
- GI50 (M14): 79.1 µM (inactive)
- GI50 (SK-MEL-28): > 100 µM (inactive)
- GI50 (IGROV-1): 7.38 µM (inactive)
- GI50 (NCI-H23): 64.3 µM (inactive)
- GI50 (DU-145): 89.3 µM (inactive)
- GI50 (SNB-75): 46.2 µM (inactive)
- GI50 (SR): 25 µM (inactive)
- GI50 (SK-OV-3): 35.1 µM (inactive)
- GI50 (SK-MEL-2): 67.5 µM (inactive)
- GI50 (OVCAR-3): 34.2 µM (inactive)
- GI50 (HOP-62): 20.4 µM (inactive)
- GI50 (Malme-3M): 25.5 µM (inactive)
- GI50 (NCI/ADR-RES): 54.3 µM (inactive)
- GI50 (MDA-MB-231): 42.1 µM (inactive)

SMILES: CSc1cc(Cl)c(C)cc1S(=O)(=O)NC(=O)NNc1cccc(C(F)(F)F)n1
- GI50 (786-0): > 100 µM (inactive)
- GI50 (NCI-H522): > 100 µM (inactive)
- GI50 (MCF7): > 100 µM (inactive)
- GI50 (PC-3): > 100 µM (inactive)
- GI50 (NCI-H226): > 100 µM (inactive)
- GI50 (U-251): > 100 µM (inactive)
- GI50 (EKVX): > 100 µM (inactive)
- GI50 (A549): > 100 µM (inactive)
- GI50 (MDA-MB-435): > 100 µM (inactive)
- GI50 (SF-268): > 100 µM (inactive)
- GI50 (SW-620): > 100 µM (inactive)
- GI50 (Hs-578T): > 100 µM (inactive)
- GI50 (MDA-N): > 100 µM (inactive)
- GI50 (LOX IMVI): > 100 µM (inactive)
- GI50 (OVCAR-5): > 100 µM (inactive)
- GI50 (COLO 205): > 100 µM (inactive)
- GI50 (SF-295): > 100 µM (inactive)
- GI50 (HT-29): > 100 µM (inactive)
- GI50 (A498): > 100 µM (inactive)
- GI50 (OVCAR-8): > 100 µM (inactive)
- GI50 (SK-MEL-5): > 100 µM (inactive)
- GI50 (OVCAR-4): > 100 µM (inactive)
- GI50 (HCT-15): > 100 µM
- GI50 (SF-539): 51.8 µM (inactive)
- GI50 (SNB-19): > 100 µM (inactive)
- GI50 (ACHN): > 100 µM (inactive)
- GI50 (CCRF-CEM): > 100 µM (inactive)
- GI50 (SN12C): > 100 µM (inactive)
- GI50 (K562): > 100 µM (inactive)
- GI50 (HCC 2998): > 100 µM (inactive)
- GI50 (MOLT-4): 20.9 µM (inactive)
- GI50 (HCT-116): > 100 µM (inactive)
- GI50 (KM12): > 100 µM (inactive)
- GI50 (M14): > 100 µM (inactive)
- GI50 (SK-MEL-28): > 100 µM (inactive)
- GI50 (IGROV-1): > 100 µM (inactive)
- GI50 (DU-145): > 100 µM (inactive)
- GI50 (SNB-75): 91.8 µM (inactive)
- GI50 (T47D): > 100 µM (inactive)
- GI50 (SR): > 100 µM (inactive)
- GI50 (SK-OV-3): > 100 µM (inactive)
- GI50 (SK-MEL-2): > 100 µM (inactive)
- GI50 (OVCAR-3): > 100 µM (inactive)
- GI50 (HOP-62): > 100 µM (inactive)
- GI50 (Malme-3M): > 100 µM (inactive)
- GI50 (RXF 393): > 100 µM (inactive)
- GI50 (NCI/ADR-RES): > 100 µM (inactive)
- GI50 (CAKI-1): > 100 µM (inactive)
- GI50 (MDA-MB-231): > 100 µM (inactive)
- GI50 (NCI-H460): > 100 µM (inactive)

SMILES: COc1cc(C(=O)N2CCN(C(=O)c3cc(OC)c(OC)c(OC)c3)C2=S)cc(OC)c1OC
- GI50 (UO-31): 0.234 µM (active)
- GI50 (RPMI-8226): 3.66 µM (inactive)

SMILES: COC(=O)/C=C(\CC(=O)OC)n1nnnc1[C@@H]1C[C@H](COC(c2ccccc2)(c2ccccc2)c2ccccc2)[C@H]2OC(C)(C)O[C@H]21
- GI50 (786-0): > 100 µM (inactive)
- GI50 (NCI-H522): 51.6 µM (inactive)
- GI50 (MCF7): 31.9 µM (inactive)
- GI50 (PC-3): > 100 µM (inactive)
- GI50 (NCI-H226): > 100 µM (inactive)
- GI50 (UO-31): > 100 µM (inactive)
- GI50 (U-251): > 100 µM (inactive)
- GI50 (EKVX): 54.2 µM (inactive)
- GI50 (A549): > 100 µM (inactive)
- GI50 (MDA-MB-435): > 100 µM (inactive)
- GI50 (UACC-257): > 100 µM (inactive)
- GI50 (SF-268): > 100 µM (inactive)
- GI50 (SW-620): > 100 µM (inactive)
- GI50 (Hs-578T): 68.4 µM (inactive)
- GI50 (MDA-N): > 100 µM (inactive)
- GI50 (LOX IMVI): > 100 µM (inactive)
- GI50 (OVCAR-5): > 100 µM (inactive)
- GI50 (COLO 205): 39.3 µM (inactive)
- GI50 (SF-295): > 100 µM (inactive)
- GI50 (HT-29): > 100 µM (inactive)
- GI50 (A498): > 100 µM (inactive)
- GI50 (OVCAR-8): > 100 µM (inactive)
- GI50 (SK-MEL-5): 76.7 µM (inactive)
- GI50 (OVCAR-4): > 100 µM (inactive)
- GI50 (SF-539): > 100 µM (inactive)
- GI50 (SNB-19): > 100 µM (inactive)
- GI50 (HOP-92): > 100 µM (inactive)
- GI50 (ACHN): > 100 µM (inactive)
- GI50 (CCRF-CEM): 22.9 µM (inactive)
- GI50 (SN12C): > 100 µM (inactive)
- GI50 (K562): 65.5 µM (inactive)
- GI50 (TK-10): > 100 µM (inactive)
- GI50 (MOLT-4): > 100 µM (inactive)
- GI50 (HCT-116): 89.1 µM (inactive)
- GI50 (KM12): > 100 µM (inactive)
- GI50 (RPMI-8226): 11.1 µM (inactive)
- GI50 (M14): > 100 µM (inactive)
- GI50 (SK-MEL-28): > 100 µM (inactive)
- GI50 (IGROV-1): 60.5 µM (inactive)
- GI50 (DU-145): > 100 µM (inactive)
- GI50 (SNB-75): 37.2 µM (inactive)
- GI50 (T47D): 20.8 µM (inactive)
- GI50 (SR): 92 µM (inactive)
- GI50 (SK-OV-3): > 100 µM (inactive)
- GI50 (SK-MEL-2): > 100 µM (inactive)
- GI50 (OVCAR-3): > 100 µM (inactive)
- GI50 (HOP-62): > 100 µM (inactive)
- GI50 (Malme-3M): > 100 µM (inactive)
- GI50 (RXF 393): 42.1 µM (inactive)
- GI50 (HL-60): > 100 µM (inactive)
- GI50 (CAKI-1): > 100 µM (inactive)
- GI50 (MDA-MB-231): > 100 µM (inactive)
